Assay results from patent US20220395500A1, “SMALL MOLECULE ACTIVATORS OF INTERFERON REGULATORY FACTOR 3 AND METHODS OF USE THEREOF” (Neuralexo, Inc., priority 2020, published 2022).

Legend:
[1] = J774-Dual cytotoxicity; type: cell-based, mouse; settings: mouse, J774-Dual cells, read-out: J774 cytotox CC50
Outline: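 Orthogonal cross-species screen in mouse J774-Dual cells using 8-point dose-response format. Cytotoxicity measured in-plate by CellTiter-Glo luminescence, giving CC50 alongside EC50 and ISRE:NFκB ratios.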

[2] = THP1-Dual cytotoxicity (Cell Titer Glo, ATP); type: cell-based, human; settings: human, THP1-Dual cells, read-out: Thp1 cytotox CC50
Outline: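 Human THP1-Dual cells were treated across an 8-point dose-response range. Cytotoxicity was measured in-plate by CellTiter-Glo luminescence, which quantifies ATP as a marker of metabolically active cells, and CC50 was taken as the 50% cytotoxic concentration.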

[3] = test system: Chikungunya Virus (CHIKV); test: Adjuvant effect on anti-CHIKV total IgG titers (CHIKV VLP prime/boost); type: in vivo, mouse; settings: C57BL/6 mice, IM prime and boost, 3 weeks post-boost
Description: Conditions shown include virus-like particle (VLP) alone, VLP+5 mg/kg ND13, VLP+10 mg/kg ND13, VLP+5 mg/kg NA-42, and VLP+10 mg/kg NA-42. Depicted is Log 10 antibody titer representing anti-CHIKV Total IgG. Individual samples are depicted as filled circles for each condition. Bar graphs represent average geometric mean titers for each treatment cohort+standard deviation.
Select chemical entities corresponding to the NA and ND chemofamilies were examined as to their ability to act as adjuvants to enhance vaccine platforms. FIG. 28 depicts a representative example showing how NA-42 and ND-13 can enhance antibody titers to a Chikungunya Virus (CHIKV) challenge. C57BL/6 mice were primed and boosted IM with 10^6 PFU equivalents of CHIKVLP alone or in the presence of ND13 or NA42; 3 weeks post-boost mice were euthanized and total IgG reactive with CHIKV was measured by ELISA in duplicate. Data presented are average geometric mean titers for each treatment cohort including each animal. Specifically, FIG. 28 depicts various conditions (virus-like particle (VLP), VLP+5 mg/kg ND13, VLP+10 mg/kg ND13, VLP+5 mg/kg NA-42, and VLP+10 mg/kg NA-42) plotted against Log 10 antibody titer representing Anti-CHIKV Total IgG.

[4] = test system: plasma cytokines IL-6 and MCP1; test: Plasma cytokine induction in vivo in mice; parameters: species or system mouse; settings: WT C57/BL6 mice, 10 mg/kg, i.v.
Description: FIG. 27A is a bar graph illustrating the ability of NA-42 to induce plasma cytokine expression in vivo in mice. […] Expression is represented as pg/ml.
FIG. 27B is a bar graph illustrating the ability of ND-13 to induce plasma cytokine expression in vivo in mice. […] Expression is represented as pg/ml.
Plasma cytokine levels were evaluated using a cytokine 20-plex mouse ProcartaPlex kit (Invitrogen) for labeling of multiple cytokines within an individual sample and run on a Luminex 200 instrument.
Select chemical entities corresponding to the NA and ND chemofamilies were examined as to their ability to induce the expression of various cytokines in vivo. […] Shown at FIG. 27A is a representative example showing NA-42 induction of IL-6 (top panel) and MCP1 (bottom panel).

[5] = test system: IRF3 activating pathway (TRIF, IPS1, STING) in THF cell lines; test: Interferon dependent luciferase reporter in telomerized human fibroblasts (THF) lacking adapter molecules; type: cell-based; settings: WT THF, IPS1 KO, 23 μM compound or 313 ng/ml LPS
Description: Shown is fold-change of an interferon dependent luciferase reporter expressed in various telomerized human fibroblasts (THF) cell lines lacking key adapter molecules in the IRF3 activating pathway (WT THF, IPS1 KO, STING KO, and TRIF KO) in response to different treatments (untreated, Sendai 1/100, 313 ng/ml LPS, 23 μM NA-42). Shown are group means+/−SEM.
Select chemical entities corresponding to the NA and ND chemofamilies were examined as to their TRIF-dependency of IRF3 induction. TRIF, or TIR-domain-containing adapter-inducing interferon-β, is an adapter in responding to activation of toll-like receptors (TLRs). For reference, FIG. 26A illustrates a cell-signalling pathway including TRIF, along with TLR4, TLR3, IPS1, STING and IRF3. […] The treatment with Sendai 1/100 serves as an IPS1-dependent control, and the treatment with 313 ng/ml LPS serves as a TRIF-dependent control. As shown at FIG. 26B, treatment with 313 ng/ml LPS induces robust IRF3 induction in WT THF, IPS1 KO, and STING KO, but not in the TRIF KO, showing that LPS induction is TRIF-dependent. […] Assessment of fold change IRF3 was determined via measurement of the interferon dependent luciferase reporter.

Structure (SMILES) | CC50 ([1]; Mouse Reporter Cell Line) | CC50 ([2]; Human Reporter Cell Line) | CC50 ([1]; Mouse Reporter Cell Line J774) | CC50 ([2]; Human Reporter Cell Line THP1) | further results
O=C(Nc1ccc(N2CCN(C(=O)c3cccs3)CC2)cc1)c1ccc(Cl)c2ccccc12 [NA13] | > 25 µM | > 25 µM |  |  | 
CCOc1cccc(COc2ccc(C(=O)Nc3ccc(N4CCN(C(=O)c5cccs5)CC4)cc3)cc2)c1 [NA42, 4-((3-ethoxybenzyl)oxy)-N-(4-(4-(thiophene-2-carbonyl)piperazin-1-yl)phenyl)benzamide] | 37.2 µM | 121 µM |  |  | 
O=C(Nc1ccc(N2CCN(C(=O)c3ccsc3)CC2)cc1)c1ccc(OCc2ccccc2)nc1 [NA-1] | 13.7 µM | 10.5 µM |  |  | 
O=C(Nc1ccc(N2CCN(C(=O)c3cccs3)CC2)cc1)c1ccc(Br)cc1 [NA-14] | > 25 µM | > 25 µM |  |  | 
Cc1c(Br)ccc(C(=O)Nc2ccc(N3CCN(C(=O)c4cccs4)CC3)cc2)c1C [NA-16] | > 25 µM | > 25 µM |  |  | 
O=C(Nc1ccc(N2CCN(C(=O)c3cccs3)CC2)cc1)c1sc2cc(Cl)ccc2c1Cl [NA-20] | 43.6 µM | 11.8 µM |  |  | 
O=C(Nc1ccc(N2CCN(C(=O)c3cccs3)CC2)cc1)c1cccc2c(Br)cccc12 [NA-21, 5-bromo-N-{4-[4-(2-thienylcarbonyl)-1-piperazinyl]phenyl}-1-naphthamide] | 63.8 µM | 39.4 µM |  |  | 
O=C(Nc1ccc(N2CCN(C(=O)c3cccs3)CC2)cc1)c1ccc(OCc2ccc(F)c(F)c2F)cc1 [NA-23] | 22.1 µM | 12.7 µM |  |  | 
COc1cccc(COc2ccc(C(=O)Nc3ccc(N4CCN(C(=O)c5cccs5)CC4)cc3)cc2)c1 [NA-24, 4-((3-methoxybenzyl)oxy)-N-(4-(4-(thiophene-2-carbonyl)piperazin-1-yl)phenyl)benzamide] | 36.2 µM | 16.8 µM |  |  | 
Cc1ccc(COc2ccc(C(=O)Nc3ccc(N4CCN(C(=O)c5cccs5)CC4)cc3)cc2)cc1 [NA-25] | > 25 µM | 35.5 µM |  |  | 
CCOc1ccc(C(=O)Nc2ccc(N3CCN(C(=O)c4cccs4)CC3)cc2)cc1Br [NA-30] | 40.7 µM | 18.8 µM |  |  | 
O=C(Nc1ccc(N2CCN(C(=O)c3cccs3)CC2)cc1)c1ccc(-c2cc3ccccc3oc2=O)cc1 [NA-32] | 67.2 µM | 36.6 µM |  |  | 
O=C(Nc1ccc(N2CCN(C(=O)c3cccs3)CC2)cc1)c1ccc(OCc2cccc(Cl)c2)cc1 [NA-33] | 25.5 µM | 9.58 µM |  |  | 
O=C(Nc1ccc(N2CCN(C(=O)c3cccs3)CC2)cc1)c1ccc(-c2ccncc2)cc1 [NA-38] | > 25 µM | > 25 µM |  |  | 
O=C(Nc1ccc(N2CCN(C(=O)c3cccs3)CC2)cc1)c1ccc(-c2ccccc2)cn1 [NA-39] | > 25 µM | > 25 µM |  |  | 
O=C(Nc1ccc(N2CCN(C(=O)c3cccs3)CC2)cc1)c1ccc(-c2ccccc2)nc1 [NA-41] | > 25 µM | > 25 µM |  |  | 
CCOc1cccc(COc2ccc(C(=O)Nc3ccc(N4CCN(C(=O)c5cccs5)CC4)cc3)cc2)c1 [NA-42, 4-((3-ethoxybenzyl)oxy)-N-(4-(4-(thiophene-2-carbonyl)piperazin-1-yl)phenyl)benzamide] |  |  |  |  | antibody titers to CHIKV (Anti-CHIKV Total IgG) compared to VLP alone ([3]; VLP + 5 mg/kg): robustly enhances; antibody titers to CHIKV (Anti-CHIKV Total IgG) compared to VLP alone ([3]; VLP + 10 mg/kg): robustly enhances; plasma IL-6 and MCP1 expression in vivo [4]: robust expression; TRIF-dependency of IRF3 induction [5]: TRIF dependent
COc1ccc(C(=O)Nc2ccc(OCc3ccccc3)cc2)cc1[N+](=O)[O-] [NA-44] | > 25 µM | 50.3 µM |  |  | 
O=C(Nc1ccc(N2CCN(C(=O)c3cccs3)CC2)cc1)c1ccc(OCc2ccccc2)nc1 [NA-59] | 36.1 µM | 16 µM |  |  | 
Cc1ccc(NC(=O)c2cc(NC(=O)c3ccccc3)ccc2N2CCOCC2)cc1Cl [NB-1] |  |  | > 111 µM | 32.8 µM | 

Structure (SMILES) | CC50 ([1]; Mouse Reporter Cell Line) | CC50 ([2]; Human Reporter Cell Line) | CC50 ([1]; Mouse Reporter Cell Line J774) | CC50 ([2]; Human Reporter Cell Line THP1) | further results
Cc1ccc(NC(=O)c2cc(NC(=O)Cc3ccccc3)ccc2N2CCOCC2)cc1Cl [NB-3] |  |  | > 25 µM | 52.5 µM | 
Cc1ccc(NC(=O)c2cc(NC(=O)c3cccs3)ccc2N2CCOCC2)cc1Cl [NB-8] |  |  | > 25 µM | > 25 µM | 
Cc1ccc(NC(=O)c2cc(NC(=O)c3cccs3)ccc2N2CCOCC2)cc1 [NB-17] |  |  | > 25 µM | > 25 µM | 
O=C(Nc1ccc(N2CCOCC2)c(C(=O)Nc2ccc(OCc3ccccc3)cc2)c1)c1cccs1 [NB-18] |  |  | > 25 µM | > 25 µM | 
Cc1ccc(NC(=O)c2cc(NC(=O)c3cccs3)ccc2N2CCOCC2)cc1Br [NB-23] |  |  | 36.9 µM | 30.5 µM | 
Cc1cc(NC(=O)c2sc3cc(Cl)ccc3c2Cl)ccc1NC(=O)c1ccco1 [NC-2] | > 25 µM | > 25 µM |  |  | 
COc1ccc(C(=O)Nc2cc(-c3nc4cc(C)c(C)cc4o3)ccc2C)cc1[N+](=O)[O-] [ND13, N-(5-(5,6-dimethylbenzo[d]oxazol-2-yl)-2-methylphenyl)-4-methoxy-3-nitrobenzamide] |  |  | 4.32 µM | 8.76 µM | 
COc1ccc(C(=O)Nc2cc(-c3nc4ccccc4s3)ccc2C)cc1[N+](=O)[O-] [ND52, N-[5-(1,3-benzothiazol-2-yl)-2-methylphenyl]-4-methoxy-3-nitrobenzamide] |  |  |  | 27.6 µM | 
COc1ccc(C(=O)Nc2nc(-c3cc4ccccc4oc3=O)cs2)cc1 [ND-1] |  |  | > 25 µM | > 25 µM | 
COc1ccc(C(=O)Nc2cc(-c3nc4cc(C(C)C)ccc4o3)ccc2C)cc1[N+](=O)[O-] [ND-2] |  |  | 65.8 µM | 27.6 µM | 
CC(C)CC(=O)Nc1ccc2oc(-c3cccc(I)c3)nc2c1 [ND-5] |  |  | > 25 µM | > 25 µM | 
O=C(Cc1ccc(Cl)cc1)Nc1cccc(-c2nnc(-c3ccco3)o2)c1 [ND-7] |  |  | > 25 µM | > 25 µM | 
COc1ccc(C(=O)Nc2cc(-c3nc4cc(C)c(C)cc4o3)ccc2C)cc1[N+](=O)[O-] [ND-13, N-(5-(5,6-dimethylbenzo[d]oxazol-2-yl)-2-methylphenyl)-4-methoxy-3-nitrobenzamide] |  |  |  |  | antibody titers to CHIKV (Anti-CHIKV Total IgG) compared to VLP alone ([3]; VLP + 10 mg/kg): robustly enhances; plasma IL-6 and MCP1 expression in vivo [4]: robust; TRIF-dependency of IRF3 induction [5]: TRIF-dependent
COc1ccc(-c2nc3cc(C(C)C)ccc3o2)cc1NC(=O)c1ccc(C)c([N+](=O)[O-])c1 [ND-16] |  |  | > 25 µM | 32.7 µM | 
COc1ccc(C(=O)Nc2cccc(-c3nc4ncccc4o3)c2)cc1Br [ND-47] |  |  | > 25 µM | > 25 µM | 
Cc1ccc(-c2nc3ccccc3s2)cc1NC(=O)c1cccc(Cl)c1 [ND-80] |  |  | > 25 µM | 33.9 µM | 
ClCCCOc1ccc(-c2nc3cc(OCCCN4CCCC4)ccc3o2)cc1 [ND-94] |  |  | > 25 µM | > 25 µM | 
COCOc1ccc2oc(-c3ccc(C)c(NC(=O)c4ccc(OC)c([N+](=O)[O-])c4)c3)nc2c1 [ND-95, 4-methoxy-N-(5-(5-(methoxymethoxy)benzo[d]oxazol-2-yl)-2-methylphenyl)-3-nitrobenzamide] |  |  | > 25 µM | 26.7 µM | 
COCOc1ccc2oc(-c3ccc(C)c([N+](=O)[O-])c3)nc2c1 [ND-96] |  |  | > 25 µM | 30.1 µM | 
